According to ChEMBL document CHEMBL3091400, “The discovery of novel N-(2-pyrimidinylamino) benzamide derivatives as potent hedgehog signaling pathway inhibitors” (Bioorg Med Chem Lett, 2013):

Legend:
[1] = target: Sonic hedgehog protein (Mus musculus, UniProt Q62226); experiment: Inhibition of SHH signaling pathway in mouse NIH3T3 cells measured after 48 hrs by Gli-luciferase reporter assay; assay type: cell-based
[2] = test system: Rattus norvegicus; experiment: Volume of distribution at steady state in Sprague-Dawley rat at 5 mg/kg, po; assay type: ADME, organism-based; design: dose 5 mg/kg, route oral; conditions: in vivo
[3] = Oral bioavailability in Sprague-Dawley rat at 5 mg/kg; assay type: ADME, organism-based; conditions: in vivo
[4] = Cmax in Sprague-Dawley rat at 1 mg/kg, iv; assay type: ADME, organism-based; design: dose 1 mg/kg, route intravenous; conditions: in vivo
[5] = Cmax in Sprague-Dawley rat at 5 mg/kg, po; assay type: ADME, organism-based; design: dose 5 mg/kg, route oral; conditions: in vivo
[6] = test system: Rattus norvegicus; experiment: Clearance in Sprague-Dawley rat at 1 mg/kg, iv; assay type: ADME, organism-based; design: dose 1 mg/kg, route intravenous; conditions: in vivo
[7] = test system: Rattus norvegicus; experiment: Volume of distribution at steady state in Sprague-Dawley rat at 1 mg/kg, iv; assay type: ADME, organism-based; design: dose 1 mg/kg, route intravenous; conditions: in vivo
[8] = AUC in Sprague-Dawley rat at 5 mg/kg, po; assay type: ADME, organism-based; design: dose 5 mg/kg, route oral; conditions: plasma
[9] = test system: Rattus norvegicus; experiment: Mean residence time in Sprague-Dawley rat at 1 mg/kg, iv; assay type: ADME, organism-based; design: dose 1 mg/kg, route intravenous; conditions: in vivo
[10] = Half life in Sprague-Dawley rat at 1 mg/kg, iv; assay type: ADME, organism-based; design: dose 1 mg/kg, route intravenous; conditions: in vivo
[11] = Clearance in Sprague-Dawley rat at 5 mg/kg, po; assay type: ADME, organism-based; design: dose 5 mg/kg, route oral; conditions: in vivo
[12] = AUC in Sprague-Dawley rat at 1 mg/kg, iv; assay type: ADME, organism-based; design: dose 1 mg/kg, route intravenous; conditions: plasma
[13] = Mean residence time in Sprague-Dawley rat at 5 mg/kg, po; assay type: ADME, organism-based; design: dose 5 mg/kg, route oral; conditions: in vivo
[14] = Half life in Sprague-Dawley rat at 5 mg/kg, po; assay type: ADME, organism-based; design: dose 5 mg/kg, route oral; conditions: in vivo

Sonic hedgehog protein, sequence (Q62226 25-198 limits assumed): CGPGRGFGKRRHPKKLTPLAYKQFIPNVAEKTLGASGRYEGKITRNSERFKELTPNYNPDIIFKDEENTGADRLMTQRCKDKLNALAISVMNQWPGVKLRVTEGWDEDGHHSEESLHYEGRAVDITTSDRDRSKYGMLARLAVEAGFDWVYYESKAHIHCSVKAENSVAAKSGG

SMILES | IC50 [1] [nM] | further results
Cc1cnc(Nc2ccc(C(=O)Nc3ccccc3CN3CCN(C)CC3)cc2)nc1-c1ccc(OC(F)(F)F)cc1 | 354 | 
Cc1c(C(=O)Nc2ccc(N3C[C@@H](C)O[C@@H](C)C3)nc2)cccc1-c1ccc(OC(F)(F)F)cc1 [SONIDEGIB] | 5.5 | 
Cc1cc(-c2ccc(OC(F)(F)F)cc2)nc(Nc2ccc(C(=O)Nc3c(C)cccc3C)cc2)n1 | 1.4 | 
Cc1cnc(Nc2ccc3[nH]ncc3c2)nc1-c1ccc(OC(F)(F)F)cc1 | 125 | 
CCCc1cc(-c2ccc(OC(F)(F)F)cc2)nc(Nc2ccc(C(=O)Nc3c(C)cccc3C)cc2)n1 | 0.8 | 
Cc1cccc(C)c1NC(=O)c1ccc(Nc2cc(-c3ccc(OC(F)(F)F)cc3)ccn2)cc1 | 1.6 | 
Cc1cnc(Nc2ccc(C(=O)Nc3ccc(CN4CCN(C)CC4)cc3)cc2)nc1-c1ccc(OC(F)(F)F)cc1 | 118 | 
Cc1cnc(Nc2ccc(N3C[C@@H](C)O[C@@H](C)C3)nc2)nc1-c1ccc(OC(F)(F)F)cc1 | > 500 | 
Cc1ccc(-c2cnn(C)c2)cc1NC(=O)c1ccc(Nc2ncc(C)c(-c3ccc(OC(F)(F)F)cc3)n2)cc1 | 1.2 | 
Cc1cnc(Nc2ccc(C(=O)NC3CCCCC3)cc2)nc1-c1ccc(OC(F)(F)F)cc1 | 2.2 | 
Cc1ccccc1NC(=O)c1ccc(Nc2ncc(C)c(-c3ccc(OC(F)(F)F)cc3)n2)cc1 | 1 | 
Cc1cccc(C)c1NC(=O)c1ccc(Nc2nccc(-c3ccc(OC(F)(F)F)cc3)n2)cc1 | 1.2 | 
Cc1ccc(CN(C)Cc2ccccc2)cc1NC(=O)c1ccc(Nc2ncc(C)c(-c3ccc(OC(F)(F)F)cc3)n2)cc1 | 1.1 | 
Cc1cnc(Nc2ccc(C(=O)NC(C)C)cc2)nc1-c1ccc(OC(F)(F)F)cc1 | 73.1 | 
Cc1cccc(C)c1NC(=O)c1ccc(Nc2cccc(-c3ccc(OC(F)(F)F)cc3)n2)cc1 | 23.4 | 
Cc1cnc(N(C)c2ccc(C(=O)Nc3c(C)cccc3C)cc2)nc1-c1ccc(OC(F)(F)F)cc1 | 2.7 | 
Cc1ccc(CN(C)Cc2ccccc2)cc1NC(=O)c1ccc(Nc2ncc(C)c(C)n2)cc1 | 101 | 
Cc1ccccc1C(=O)Nc1ccc(Nc2ncc(C)c(-c3ccc(OC(F)(F)F)cc3)n2)cc1 | 42.1 | 
CS(=O)(=O)c1ccc(C(=O)Nc2ccc(Cl)c(-c3ccccn3)c2)c(Cl)c1 [VISMODEGIB] | 7.2 | 

Continued, in another order:

IC50 [1] [nM] | SMILES | further results
152 | Cc1cnc(Nc2ccc(C(=O)Nc3c(C)cccc3C)cc2)nc1C | 
20.2 | Cc1cnc(Nc2ccc(C(=O)Nc3c(C)cccc3C)cc2)nc1-c1ccc(N2CCOCC2)cc1 | 
1.6 | Cc1cccc(C)c1NC(=O)c1ccc(Nc2ncc(F)c(-c3ccc(OC(F)(F)F)cc3)n2)cc1 | 
15.7 | Cc1cnc(Nc2ccc(C(=O)Nc3c(C)cccc3C)cc2)nc1-c1ccoc1 | 
159 | Cc1cnc(Nc2ccc(C(=O)Nc3c(C)cccc3C)cc2)nc1-c1ccc(OC(F)(F)F)c(F)c1 | 
10.6 | Cc1cnc(Nc2ccc(C(=O)Nc3c(C)cccc3C)cc2)nc1-c1cnn(C)c1 | 
2.8 | Cc1cnc(Nc2ccc(C(=O)Nc3c(C)cccc3C)cc2)nc1-c1ccc(C#N)cc1 | 
32.8 | Cc1cnc(Nc2ccc(C(=O)Nc3c(C)cccc3C)cc2)nc1C1CC1 | 
0.54 | Cc1cnc(Nc2ccc(C(=O)Nc3c(C)cccc3C)cc2)nc1-c1ccncc1 | 
1.3 | Cc1cnc(Nc2ccc(C(=O)Nc3c(C)cccc3C)cc2)nc1-c1ccc(OC(F)(F)F)cc1 | Vdss [2]: 27.738 L/kg; bioavailability [3]: 36%; Cmax [4]: 764 ng/mL; Cmax [5]: 342 ng/mL; CL [6]: 16.73 mL/min/kg; Vdss [7]: 14.898 L/kg; AUC [8]: 1700 ng·h/mL; MRT [9]: 4 h; half-life [10]: 10.3 h; CL/F [11]: 46.6 mL/min/kg; AUC [12]: 915 ng·h/mL; MRT [13]: 5.1 h; half-life [14]: 7 h
> 500 | Cc1cnc(Nc2ccc(C(=O)Nc3c(C)cccc3C)cc2)nc1-c1cccnc1 | 
> 500 | Cc1ccc(-c2nc(Nc3ccc(C(=O)Nc4c(C)cccc4C)cc3)ncc2C)cc1 | 
1.2 | Cc1cnc(Nc2ccc(C(=O)Nc3c(C)cccc3C)cc2)nc1-c1cccc(OC(F)(F)F)c1 | 
> 500 | Cc1cnc(Nc2ccc(C(=O)Nc3c(C)cccc3C)cc2)nc1-c1ccccc1OC(F)(F)F | 
34.3 | Cc1cnc(Nc2ccc(C(=O)Nc3c(C)cccc3C)cc2)nc1Cc1ccccc1 | 
5.3 | CCc1cnc(Nc2ccc(C(=O)Nc3c(C)cccc3C)cc2)nc1-c1ccc(OC(F)(F)F)cc1 | 
1.3 | Cc1cnc(Nc2ccc(C(=O)Nc3c(C)cccc3C)cc2)nc1-c1ccccc1 | 
1.3 | Cc1cccc(C)c1NC(=O)c1ccc(Nc2ncc(C3CC3)c(-c3ccc(OC(F)(F)F)cc3)n2)cc1 | 
1.6 | Cc1cccc(C)c1NC(=O)c1ccc(Nc2nc(C)c(C)c(-c3ccc(OC(F)(F)F)cc3)n2)cc1 | 
2.2 | Cc1cnc(Nc2ccc(C(=O)Nc3c(C)cccc3C)cc2)nc1-c1ccc(F)cc1 | 
0.53 | Cc1cccc(C)c1NC(=O)c1ccc(Nc2ncc(C(F)(F)F)c(-c3ccc(OC(F)(F)F)cc3)n2)cc1 | 
